Data set [1] relates to O=C(O)CCCCC(=O)O. The data set can be described thus: purified protein, by the assay type. The note with it: 0.2 mM NADPH, 0.5 mM ATP, 10 mM MgCl2, 100 mM HEPES potassium buffer pH=8.0, 30° C., mean of two independent studies.
The subject of data set [2] is Mycobacterium abscessus carboxylic acid reductase variant L342E. The following applies: literature value (Non Patent Literature 6); cited from earlier work.
Data set [3] concerns Mycobacterium abscessus carboxylic acid reductase variant G418E. The note with it: literature value (Non Patent Literature 6); cited from earlier work.
For data set [4], the system named is Mycobacterium abscessus carboxylic acid reductase variant W283R/A303M (modified carboxylic acid reductase 1), SEQ ID NO: 3. From the text: (§1) Examples of the recombinant polypeptide (also referred to as “modified carboxylic acid reductase”) having the amino acid sequence A according to the present invention are illustrated in FIG. 3 (modified carboxylic acid reductase 1, SEQ ID NO: 3) and FIG. 4 (modified carboxylic acid reductase 2, SEQ ID NO: 4). The modified carboxylic acid reductase 1 (consisting of the polypeptide set forth in SEQ ID NO: 3) illustrated in FIG. 3 has amino acid substitutions of W283R and A303M with respect to SEQ ID NO: 1. The modified carboxylic acid reductase 2 (consisting of the polypeptide set forth in SEQ ID NO: 4) illustrated in FIG. 4 has amino acid substitutions of W283R and L335F with respect to SEQ ID NO: 1. That is, in the modified carboxylic acid reductase 1, the amino acid residue at the position corresponding to position 283 and the amino acid residue at the position corresponding to position 303 are substituted with arginine and methionine, respectively, based on the amino acid sequence set forth in SEQ ID NO: 1. In the modified carboxylic acid reductase 2, the amino acid residue at the position corresponding to position 283 and the amino acid residue at the position corresponding to position 335 are substituted with arginine and phenylalanine, respectively, based on the amino acid sequence set forth in SEQ ID NO: 1.

Data set [5] addresses Mycobacterium abscessus carboxylic acid reductase variant W283R/A303M (modified carboxylic acid reductase 1), SEQ ID NO: 3 (Mycobacteroides abscessus, UniProt B1MLD7, A303M/W283R). The note with it: disodium adipate 0.1875-3 mM; 0.2 mM NADPH, 0.5 mM ATP, pH=8.0, 30° C.; mean of two independent studies.
Text: as §1

Where [6] appears, read: other: disodium adipate 3.125-50 mM.

Turning to “Mycobacterium abscessus carboxylic acid reductase, wild-type, SEQ ID NO: 1 (Mycobacteroides abscessus ATCC 19977)”, in data set [1] (setting [6]), the Km was determined as 23.3 mM, the Vmax came out at 18.1 µM/min and the kcat came out at 1.68 s⁻¹.

Take `O=C(O)CCCCC(=O)O` [adipic acid, hexanedioic acid]: in data set [2], the Kcat is 2.72 ± 0.09 s⁻¹ and the Km was 56.6 mM. The Km in data set [3] is 18.7 mM. Moreover, the “Km of the mutant enzyme for adipic acid compared to the existing variant carboxylic acid reductases (L342 and G418E mutants)” value in data set [4] (W283R/A303M mutant vs literature L342 and G418E mutants) is 1/17. Besides, the “Km of the mutant enzyme for adipic acid relative to that of the wild-type enzyme” value in data set [4] (W283R/A303M mutant vs wild-type enzyme) was 1/20. In data set [5], the Kcat came out at 3.53 s⁻¹ and the Vmax is 24.8 µmol/L/min.

Regarding “Mycobacterium abscessus carboxylic acid reductase variant W283R/A303M (modified carboxylic acid reductase 1), SEQ ID NO: 3 (Mycobacteroides abscessus ATCC 19977; A303M/W283R)”, the Km in data set [1] (other: disodium adipate 0.1875-3 mM) was 1.06 mM.
